Source: patent US12390440B2, “Immunomodulating trifluoromethyl-aminal azalides” (Zoetis Services LLC, priority 2020, dated 2025)
Like-named read-outs stand apart in the source and are kept apart here.

What was measured:
IL-1β = assay: Bovine whole blood assay, IL-1β; type: cell-based; conditions: overstimulation of IL-1β, perceived cellular toxicity concentration;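 also: compound concentration at which rising IL-1β release signals cytotoxicity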
Experimental: (§1) (protected from light) for 30 minutes.

TNF-α = assay: Bovine whole blood assay, LPS-induced TNF-α; type: cell-based; conditions: Bos taurus, fresh whole bovine blood, LPS 1 μg/mL
Experimental: as §1

[1] = test system: BRD pathogens, M. haemolytica and P. multocida; assay: MIC screening panel, BRD pathogens (CLSI broth micro-dilution)

Row | Structure (SMILES) | IL-1β OS of LPS (IL-1β) | IC50 (TNF-α) | MIC ([1]; read-out: MIC flag (*) at Ex #) | MIC ([1]; read-out: MIC flag (*) at Example #)
1 | CCNC[C@]1(O)[C@H](C)O[C@@H](O[C@H]2[C@H](C)[C@@H](O[C@@H]3O[C@H](C)C[C@H]4[C@H]3OC(C(F)(F)F)N4C)[C@](C)(O)C[C@@H](C)CN[C@H](C)[C@@H](O)[C@](C)(O)[C@@H](CC)OC(=O)[C@@H]2C)C[C@@]1(C)OC (stereo partly drawn) [Example A-5, (2R,3S,4R,5R,8R,10R,11R,12S,13S,14R)-11-(((3aR,4S,6R,7aS)-1,6-dimethyl-2-(trifluoromethyl)hexahydro-2H-pyrano[4,3-d]oxazol-4-yl)oxy)-2-ethyl-13-(((2R,4R,5S,6S)-5-((ethylamino)methyl)-5-hydroxy-4-methoxy-4,6-dimethyltetrahydro-2H-pyran-2-yl)oxy)-3,4,10-trihydroxy-3,5,8,10,12,14-hexamethyl-1-oxa-6-azacyclopentadecan-15-one] | 5 µM | 5 µM | – | –
2 | CC[C@H]1OC(=O)[C@H](C)[C@@H](O[C@H]2C[C@@](C)(OC)[C@](O)(CNCc3ncc[nH]3)[C@H](C)O2)[C@H](C)[C@@H](O[C@@H]2O[C@H](C)C[C@H]3[C@H]2OC(C(F)(F)F)N3C)[C@](C)(O)C[C@@H](C)CN[C@H](C)[C@@H](O)[C@]1(C)O (stereo partly drawn) [Example A-11, (2R,3S,4R,5R,8R,10R,11R,12S,13S,14R)-13-(((2R,4R,5S,6S)-5-((((1H-imidazol-2-yl)methyl)amino)methyl)-5-hydroxy-4-methoxy-4,6-dimethyltetrahydro-2H-pyran-2-yl)oxy)-11-(((3aR,4S,6R,7aS)-1,6-dimethyl-2-(trifluoromethyl)hexahydro-2H-pyrano[4,3-d]oxazol-4-yl)oxy)-2-ethyl-3,4,10-trihydroxy-3,5,8,10,12,14-hexamethyl-1-oxa-6-azacyclopentadecan-15-one] | 40 µM | 101 µM | < 64 µg/mL | –
3 | CC[C@H]1OC(=O)[C@H](C)[C@@H](O[C@H]2C[C@@](C)(OC)[C@](O)(CNCCS(=O)(=O)N(C)C)[C@H](C)O2)[C@H](C)[C@@H](O[C@@H]2O[C@H](C)C[C@H]3[C@H]2OC(C(F)(F)F)N3C)[C@](C)(O)C[C@@H](C)CN[C@H](C)[C@@H](O)[C@]1(C)O (stereo partly drawn) [Example A-13, 2-((((2S,3S,4R,6R)-6-(((2R,3S,4R,5R,8R,10R,11R,12S,13S,14R)-11-(((3aR,4S,6R,7aS)-1,6-dimethyl-2-(trifluoromethyl)hexahydro-2H-pyrano[4,3-d]oxazol-4-yl)oxy)-2-ethyl-3,4,10-trihydroxy-3,5,8,10,12,14-hexamethyl-15-oxo-1-oxa-6-azacyclopentadecan-13-yl)oxy)-3-hydroxy-4-methoxy-2,4-dimethyltetrahydro-2H-pyran-3-yl)methyl)amino)-N,N-dimethylethane-1-sulfonamide] | 40 µM | 18 µM | – | –
4 | CC[C@H]1OC(=O)[C@H](C)[C@@H](O[C@H]2C[C@@](C)(OC)[C@](O)(CNCCn3cncn3)[C@H](C)O2)[C@H](C)[C@@H](O[C@@H]2O[C@H](C)C[C@H]3[C@H]2OC(C(F)(F)F)N3C)[C@](C)(O)C[C@@H](C)CN[C@H](C)[C@@H](O)[C@]1(C)O (stereo partly drawn) [Example A-14, (2R,3S,4R,5R,8R,10R,11R,12S,13S,14R)-13-(((2R,4R,5S,6S)-5-(((2-(1H-1,2,4-triazol-1-yl)ethyl)amino)methyl)-5-hydroxy-4-methoxy-4,6-dimethyltetrahydro-2H-pyran-2-yl)oxy)-11-(((3aR,4S,6R,7aS)-1,6-dimethyl-2-(trifluoromethyl)hexahydro-2H-pyrano[4,3-d]oxazol-4-yl)oxy)-2-ethyl-3,4,10-trihydroxy-3,5,8,10,12,14-hexamethyl-1-oxa-6-azacyclopentadecan-15-one] | 40 µM | 30 µM | < 64 µg/mL | –
5 | CC[C@H]1OC(=O)[C@H](C)[C@@H](O[C@H]2C[C@@](C)(OC)[C@](O)(CNCCOCCO)[C@H](C)O2)[C@H](C)[C@@H](O[C@@H]2O[C@H](C)C[C@H]3[C@H]2OC(C(F)(F)F)N3C)[C@](C)(O)C[C@@H](C)CN[C@H](C)[C@@H](O)[C@]1(C)O (stereo partly drawn) [Example A-16, (2R,3S,4R,5R,8R,10R,11R,12S,13S,14R)-11-(((3aR,4S,6R,7aS)-1,6-dimethyl-2-(trifluoromethyl)hexahydro-2H-pyrano[4,3-d]oxazol-4-yl)oxy)-2-ethyl-3,4,10-trihydroxy-13-(((2R,4R,5S,6S)-5-hydroxy-5-(((2-(2-hydroxyethoxy)ethyl)amino)methyl)-4-methoxy-4,6-dimethyltetrahydro-2H-pyran-2-yl)oxy)-3,5,8,10,12,14-hexamethyl-1-oxa-6-azacyclopentadecan-15-one] | 40 µM | 28 µM | – | –
6 | CC[C@H]1OC(=O)[C@H](C)[C@@H](O[C@H]2C[C@@](C)(OC)[C@](O)(CNCCC(=O)N(C)C)[C@H](C)O2)[C@H](C)[C@@H](O[C@@H]2O[C@H](C)C[C@H]3[C@H]2OC(C(F)(F)F)N3C)[C@](C)(O)C[C@@H](C)CN[C@H](C)[C@@H](O)[C@]1(C)O (stereo partly drawn) [Example A-17, 3-((((2S,3S,4R,6R)-6-(((2R,3S,4R,5R,8R,10R,11R,12S,13S,14R)-11-(((3aR,4S,6R,7aS)-1,6-dimethyl-2-(trifluoromethyl)hexahydro-2H-pyrano[4,3-d]oxazol-4-yl)oxy)-2-ethyl-3,4,10-trihydroxy-3,5,8,10,12,14-hexamethyl-15-oxo-1-oxa-6-azacyclopentadecan-13-yl)oxy)-3-hydroxy-4-methoxy-2,4-dimethyltetrahydro-2H-pyran-3-yl)methyl)amino)-N,N-dimethylpropanamide] | – | – | < 64 µg/mL | –
7 | CC[C@H]1OC(=O)[C@H](C)[C@@H](O[C@H]2C[C@@](C)(OC)[C@](O)(CNCC3CCN(C(C)=O)CC3)[C@H](C)O2)[C@H](C)[C@@H](O[C@@H]2O[C@H](C)C[C@H]3[C@H]2OC(C(F)(F)F)N3C)[C@](C)(O)C[C@@H](C)CN[C@H](C)[C@@H](O)[C@]1(C)O (stereo partly drawn) [Example A-18, (2R,3S,4R,5R,8R,10R,11R,12S,13S,14R)-13-(((2R,4R,5S,6S)-5-((((1-acetylpiperidin-4-yl)methyl)amino)methyl)-5-hydroxy-4-methoxy-4,6-dimethyltetrahydro-2H-pyran-2-yl)oxy)-11-(((3aR,4S,6R,7aS)-1,6-dimethyl-2-(trifluoromethyl)hexahydro-2H-pyrano[4,3-d]oxazol-4-yl)oxy)-2-ethyl-3,4,10-trihydroxy-3,5,8,10,12,14-hexamethyl-1-oxa-6-azacyclopentadecan-15-one] | – | – | < 64 µg/mL | –
8 | CC[C@H]1OC(=O)[C@H](C)[C@@H](O[C@H]2C[C@@](C)(OC)[C@](O)(CNCCn3ccccc3=O)[C@H](C)O2)[C@H](C)[C@@H](O[C@@H]2O[C@H](C)C[C@H]3[C@H]2OC(C(F)(F)F)N3C)[C@](C)(O)C[C@@H](C)CN[C@H](C)[C@@H](O)[C@]1(C)O (stereo partly drawn) [Example A-19, (2R,3S,4R,5R,8R,10R,11R,12S,13S,14R)-11-(((3aR,4S,6R,7aS)-1,6-dimethyl-2-(trifluoromethyl)hexahydro-2H-pyrano[4,3-d]oxazol-4-yl)oxy)-2-ethyl-3,4,10-trihydroxy-13-(((2R,4R,5S,6S)-5-hydroxy-4-methoxy-4,6-dimethyl-5-(((2-(2-oxopyridin-1(2H)-yl)ethyl)amino)methyl)tetrahydro-2H-pyran-2-yl)oxy)-3,5,8,10,12,14-hexamethyl-1-oxa-6-azacyclopentadecan-15-one] | – | – | < 64 µg/mL | –
9 | CC[C@H]1OC(=O)[C@H](C)[C@@H](O[C@H]2C[C@@](C)(OC)[C@](O)(CNCCS(N)(=O)=O)[C@H](C)O2)[C@H](C)[C@@H](O[C@@H]2O[C@H](C)C[C@H]3[C@H]2OC(C(F)(F)F)N3C)[C@](C)(O)C[C@@H](C)CN[C@H](C)[C@@H](O)[C@]1(C)O (stereo partly drawn) [Example A-20, 2-((((2S,3S,4R,6R)-6-(((2R,3S,4R,5R,8R,10R,11R,12S,13S,14R)-11-(((3aR,4S,6R,7aS)-1,6-dimethyl-2-(trifluoromethyl)hexahydro-2H-pyrano[4,3-d]oxazol-4-yl)oxy)-2-ethyl-3,4,10-trihydroxy-3,5,8,10,12,14-hexamethyl-15-oxo-1-oxa-6-azacyclopentadecan-13-yl)oxy)-3-hydroxy-4-methoxy-2,4-dimethyltetrahydro-2H-pyran-3-yl)methyl)amino)ethane-1-sulfonamide] | 100 µM | 141 µM | – | –
10 | CCCNC[C@]1(O)[C@H](C)O[C@@H](O[C@H]2[C@H](C)[C@@H](O[C@@H]3O[C@H](C)C[C@H]4[C@H]3OC(C(F)(F)F)N4C)[C@](C)(O)C[C@@H](C)CN(C)[C@H](C)[C@@H](O)[C@](C)(O)[C@@H](CC)OC(=O)[C@@H]2C)C[C@@]1(C)OC (stereo partly drawn) [Example A-26, (2R,3S,4R,5R,8R,10R,11R,12S,13S,14R)-11-(((3aR,4S,6R,7aS)-1,6-dimethyl-2-(trifluoromethyl)hexahydro-2H-pyrano[4,3-d]oxazol-4-yl)oxy)-2-ethyl-3,4,10-trihydroxy-13-(((2R,4R,5S,6S)-5-hydroxy-4-methoxy-4,6-dimethyl-5-((propylamino)methyl)tetrahydro-2H-pyran-2-yl)oxy)-3,5,6,8,10,12,14-heptamethyl-1-oxa-6-azacyclopentadecan-15-one] | – | – | < 64 µg/mL | –
11 | CC[C@H]1OC(=O)[C@H](C)[C@@H](O[C@H]2C[C@@](C)(OC)[C@@H](O)[C@H](C)O2)[C@H](C)[C@@H](O[C@@H]2O[C@H](C)C[C@H]3[C@H]2OC(C(F)(F)F)N3C)[C@](C)(O)C[C@@H](C)CN(C)[C@H](C)[C@@H](O)[C@]1(C)O (stereo partly drawn) [Example C-1, (2R,3S,4R,5R,8R,10R,11R,12S,13S,14R)-11-(((3aR,4S,6R,7aS)-1,6-dimethyl-2-(trifluoromethyl)hexahydro-2H-pyrano[4,3-d]oxazol-4-yl)oxy)-2-ethyl-3,4,10-trihydroxy-13-(((2R,4R,5S,6S)-5-hydroxy-4-methoxy-4,6-dimethyltetrahydro-2H-pyran-2-yl)oxy)-3,5,6,8,10,12,14-heptamethyl-1-oxa-6-azacyclopentadecan-15-one] | – | – | – | < 64 µg/mL
